Results taken from patent publication US10517889B2, “Modulators of SMAD7 expression” (Ionis Pharmaceuticals, Inc., priority 2017, dated 2019).

Tests used:
human SMAD7 mRNA = test: Antisense inhibition of human SMAD7 mRNA expression in Hep3B cells by 3-10-3 cEt gapmers, 10,000 nM, electroporation (Example 2); assay type: cell-based; settings: Hep3B cells, electroporation with 10,000 nM antisense oligonucleotide, approximately 24 hours, SMAD7 mRNA by RT-PCR (RTS5062), relative to untreated control cells
Method in brief: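 SMAD7 mRNA was measured by real-time PCR (RTS5062) with RiboGreen total-RNA normalization, about 24 h after 10,000 nM gapmer was delivered by electroporation into Hep3B cells at 20,000 per well. Gapmers were 16-mer 3-10-3 cEt, fully phosphorothioate; values are % inhibition versus untreated controls.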

[1] = Oligonucleotide concentration in liver and colon by LC-MS/MS after subcutaneous administration in CD-1 mice (Example 6); assay type: in vivo; settings: 50 mg/kg subcutaneously twice a week for 7 weeks, 48 hours after the last dose
Procedure: Groups of 8-9 week old male CD-1 mice were injected subcutaneously twice a week for 7 weeks with 50 mg/kg of Ionis oligonucleotides (100 mg/kg/week dose). Each group contained 4 mice. One group of male CD-1 mice was injected subcutaneously twice a week for 7 weeks with PBS. Plasma was collected for analysis on day 28.
Oligonucleotide concentrations in the liver and colon were analyzed using LC-MS/MS method.

[2] = Body and organ weights after oral gavage in CD-1 mice (Example 7); assay type: in vivo; settings: 500 mg/kg oral gavage once daily for 4 weeks, end of study
Procedure: (§1) Groups of 7-8 week old male CD-1 mice were given an oral gavage dose once daily for 4 weeks of 500 mg/kg of Ionis SMAD7 oligonucleotides. Each group contained 8 mice. One group of male CD-1 mice was administered saline by oral gavage daily.
Final body weights were measured at the end of the study. There was no significant difference in the body weight of the mice treated with antisense oligonucleotide compared to the control.
None of the Ionis SMAD7 oligonucleotides caused any changes in organ weights outside the expected range for antisense oligonucleotides.

[3] = Hematology assays after oral gavage in CD-1 mice (Example 7); assay type: in vivo; design: RBC: unit not given here; settings: 500 mg/kg oral gavage once daily for 4 weeks
Procedure: as §1
Blood obtained from all mouse groups was measured by an ADVIA2120i hematology analyzer (Siemens, USA) for measurements of the various blood cells, as well as other hematology markers. None of the Ionis SMAD7 oligonucleotides caused changes in the levels of any of the hematology markers outside the expected range for antisense oligonucleotides.

[4] = Oligonucleotide concentrations in tissues by LC-MS/MS after oral gavage in CD-1 mice (Example 7); assay type: in vivo; settings: 500 mg/kg oral gavage once daily for 4 weeks, 48 hours after last dose
Procedure: as §1
Oligonucleotide concentrations were detected in various tissues by LC-MS/MS analysis. The greatest concentration was found in the kidney, followed by the colon.

[5] = Body and organ weights after subcutaneous administration in beagle dogs (Example 8); assay type: in vivo; settings: 30 mg/kg subcutaneous days 1, 3, 5, 8, 15, 22, 29, end of study
Procedure: (§2) There were 4 animals per group.
Body weights as well as kidney, spleen, liver (with gall bladder), mesenteric lymph node, heart, and thymus weights were measured at the end of the study. […] Ionis SMAD7 oligonucleotides that caused any changes in organ weights outside the expected range for antisense oligonucleotides were excluded from further studies.

dog SMAD7 mRNA = test: Pharmacology: dog SMAD7 mRNA expression in liver, kidney, duodenum, ileum and colon after subcutaneous administration in beagle dogs (Example 8); assay type: in vivo; settings: 30 mg/kg subcutaneous, necropsy, normalized to HPRT1
Procedure: as §2
The pharmacological activity of the Ionis oligonucleotides in dogs was assessed by measuring dog SMAD7 mRNA expression in liver, kidney, duodenum, ileum, and colon at necropsy. All the human ASOs used are complementary to dog SMAD7 mRNA.
Tissue samples from all dogs were analyzed for SMAD7 mRNA expression using the primer probe set RTS34649 (forward sequence […], designated SEQ ID NO: 2740; reverse sequence […], designated SEQ ID NO: 2741; probe sequence […], designated SEQ ID NO: 2742), which was normalized to mRNA levels of the housekeeping gene, HPRT1. One-way ANOVA with Dunnet's comparison test was used for statistical analysis.

[6] = Plasma chemistry markers after subcutaneous administration in beagle dogs (Example 8); settings: 30 mg/kg subcutaneous days 1, 3, 5, 8, 15, 22, 29, plasma at day 31
Procedure: Groups of 24-25 week old male beagle dogs were injected subcutaneously with 30 mg/kg ION Ionis oligonucleotide. There were 4 animals per group. Dogs were injected every two days for the first week (day 1, 3, and 5) and once weekly thereafter (days 8, 15, 22, and 29). A control group of dogs received subcutaneous injections of PBS. Dogs were sacrificed on day 31 approximately 48 hours after the final dose and organs and plasma were harvested for further analysis.
To evaluate the effect of Ionis SMAD7 oligonucleotides on liver and kidney function, plasma levels of transaminases, albumin, creatine and BUN were measured using an automated clinical chemistry analyzer (Toshiba 200FR Neo chemistry analyzer, Toshiba Co., Japan).

## 830025 (antisense TTTGTAAATCGAAAGC; 3-10-3 cEt gapmer, further chemistry not given here) [compound 830025]
Human SMAD7 mRNA
  % Inhibition: 62%
[1]
  Oligonucleotide concentration, Colon: 39 μg/g tissue
  Oligonucleotide concentration, Liver: 77 μg/g tissue
[2]
  Body weight: 35 g
  Heart weight: 0.17 g
  Kidneys weight: 0.71 g
  Liver with gallbladder weight: 1.88 g
  Spleen weight: 0.10 g
[3]
  Basophils: 0.01 10^3/μL
  Eosinophils: 0.08 10^3/μL
  Hematocrit: 52.4%
  Hemoglobin: 15.0 g/dL
  Lymphocytes: 77.6%
  MCH: 14.9 pg
  MCHC: 28.5 g/dL
  MCV: 52.3 fL
  Monocytes: 0.12 10^3/μL
  Neutrophils: 17.5%
  RBC: 10.1
  Reticulocytes: 3.2%
  WBC: 4.7 10^3/μL
  platelets: 1236 10^3/μL
[4]
  Oligonucleotide concentration, Colon: 3.6 µg/g
  Oligonucleotide concentration, Duodenum: 0.7 µg/g
  Oligonucleotide concentration, Ileum: 1.9 µg/g
  Oligonucleotide concentration, Kidney: 21.5 µg/g
  Oligonucleotide concentration, Liver: 2.3 µg/g
[5]
  Body weight: 7403 g
  Heart weight: 60.5 g
  Kidney weight: 40.3 g
  Liver weight: 250.3 g
  Mesenteric LN weight: 10.9 g
  Spleen weight: 28.9 g
  Thymus weight: 8.3 g
Dog SMAD7 mRNA
  % inhibition of SMAD7 mRNA expression (compared to control), Distal colon: 3%
  % inhibition of SMAD7 mRNA expression (compared to control), Duodenum: 7%
  % inhibition of SMAD7 mRNA expression (compared to control), Ileum: 9%
  % inhibition of Smad7 mRNA expression (compared to control), Kidney: 25%
  % inhibition of Smad7 mRNA expression (compared to control), Liver: 0%
  % inhibition of SMAD7 mRNA expression (compared to control), Proximal colon: 24%
[6]
  ALT: 26 IU/L
  AST: 38 IU/L
  Albumin: 3.1 g/dL
  BUN: 17.9 mg/dL
  Bilirubin: 0.1 mg/dL
  Creatine: 0.9 mg/dL

## 830037 (antisense CTATTGGCTGATCTGG; 3-10-3 cEt gapmer, further chemistry not given here) [compound 830037]
Human SMAD7 mRNA
  % Inhibition: 67%
[1]
  Oligonucleotide concentration, Colon: 24 μg/g tissue
  Oligonucleotide concentration, Liver: 97 μg/g tissue
[2]
  Body weight: 35 g
  Heart weight: 0.17 g
  Kidneys weight: 0.69 g
  Liver with gallbladder weight: 1.93 g
  Spleen weight: 0.10 g
[3]
  Basophils: 0.01 10^3/μL
  Eosinophils: 0.15 10^3/μL
  Hematocrit: 53.4%
  Hemoglobin: 15.4 g/dL
  Lymphocytes: 73.2%
  MCH: 15.4 pg
  MCHC: 28.9 g/dL
  MCV: 53.2 fL
  Monocytes: 0.13 10^3/μL
  Neutrophils: 19.3%
  RBC: 10.1
  Reticulocytes: 3.1%
  WBC: 4.3 10^3/μL
  platelets: 1122 10^3/μL
[4]
  Oligonucleotide concentration, Colon: 4.8 µg/g
  Oligonucleotide concentration, Duodenum: 1.2 µg/g
  Oligonucleotide concentration, Ileum: 2.7 µg/g
  Oligonucleotide concentration, Kidney: 32.4 µg/g
  Oligonucleotide concentration, Liver: 3.9 µg/g
[5]
  Body weight: 6437 g
  Heart weight: 51.9 g
  Kidney weight: 36.7 g
  Liver weight: 204.1 g
  Mesenteric LN weight: 9.0 g
  Spleen weight: 23.7 g
  Thymus weight: 6.3 g
Dog SMAD7 mRNA
  % inhibition of SMAD7 mRNA expression (compared to control), Distal colon: 22%
  % inhibition of SMAD7 mRNA expression (compared to control), Duodenum: 33%
  % inhibition of SMAD7 mRNA expression (compared to control), Ileum: 22%
  % inhibition of Smad7 mRNA expression (compared to control), Kidney: 40%
  % inhibition of Smad7 mRNA expression (compared to control), Liver: 0%
  % inhibition of SMAD7 mRNA expression (compared to control), Proximal colon: 50%
[6]
  ALT: 3091 IU/L
  AST: 1132 IU/L
  Albumin: 3.7 g/dL
  BUN: 21.2 mg/dL
  Bilirubin: 0.8 mg/dL
  Creatine: 1.0 mg/dL

## 830121 (AGAATCAAGCCCTGGC; 3-10-3 cEt gapmer, further chemistry not given here) [compound 830121]
Human SMAD7 mRNA
  % Inhibition: 69%
[1]
  Oligonucleotide concentration, Colon: 14 μg/g tissue
  Oligonucleotide concentration, Liver: 50 μg/g tissue
[2]
  Body weight: 34 g
  Heart weight: 0.17 g
  Kidneys weight: 0.61 g
  Liver with gallbladder weight: 1.92 g
  Spleen weight: 0.10 g
[3]
  Basophils: 0.01 10^3/μL
  Eosinophils: 0.08 10^3/μL
  Hematocrit: 51.8%
  Hemoglobin: 15.1 g/dL
  Lymphocytes: 81.7%
  MCH: 15.0 pg
  MCHC: 29.1 g/dL
  MCV: 51.6 fL
  Monocytes: 0.15 10^3/μL
  Neutrophils: 11.6%
  RBC: 10.0
  Reticulocytes: 3.0%
  WBC: 4.1 10^3/μL
  platelets: 1170 10^3/μL
[4]
  Oligonucleotide concentration, Colon: 2.7 µg/g
  Oligonucleotide concentration, Duodenum: 0.4 µg/g
  Oligonucleotide concentration, Ileum: 1.1 µg/g
  Oligonucleotide concentration, Kidney: 13.2 µg/g
  Oligonucleotide concentration, Liver: 0.9 µg/g
[5]
  Body weight: 6091 g
  Heart weight: 52.6 g
  Kidney weight: 40.0 g
  Liver weight: 202.0 g
  Mesenteric LN weight: 12.2 g
  Spleen weight: 27.5 g
  Thymus weight: 2.8 g
Dog SMAD7 mRNA
  % inhibition of SMAD7 mRNA expression (compared to control), Distal colon: 21%
  % inhibition of SMAD7 mRNA expression (compared to control), Duodenum: 55%
  % inhibition of SMAD7 mRNA expression (compared to control), Ileum: 0%
  % inhibition of Smad7 mRNA expression (compared to control), Kidney: 39%
  % inhibition of Smad7 mRNA expression (compared to control), Liver: 0%
  % inhibition of SMAD7 mRNA expression (compared to control), Proximal colon: 20%
[6]
  ALT: 1454 IU/L
  AST: 383 IU/L
  Albumin: 3.0 g/dL
  BUN: 20.0 mg/dL
  Bilirubin: 2.6 mg/dL
  Creatine: 0.9 mg/dL
